Test results taken from paper PMC5218480 (PLoS ONE, 2017).

Test system: MV-4-11 cells
Assay: Gene expression microarray analysis (Affymetrix PrimeView) and GSEA
Assay type: cell-based, human
Design: RFU PODN (11730768_x_at) / Fold change /veh PODN (11730768_x_at) / RFU LINC00158 (11744669_a_at) / Fold change /veh LINC00158 (11744669_a_at) / RFU DUSP10 (11751237_a_at) / Fold change /veh DUSP10 (11751237_a_at) / RFU ID3 (11757404_x_at) / Fold change /veh ID3 (11757404_x_at) / RFU PLEKHG5 (11737974_s_at) / Fold change /veh PLEKHG5 (11737974_s_at) / RFU LRRC4B (11730491_at) / Fold change /veh LRRC4B (11730491_at) / RFU GIMAP4 (11747438_a_at) / Fold change /veh GIMAP4 (11747438_a_at) / RFU KRT8 (11758183_x_at) / Fold change /veh KRT8 (11758183_x_at) / RFU CNN1 (11734310_a_at) / Fold change /veh CNN1 (11734310_a_at) / RFU VPS37D (11726825_at) / Fold change /veh VPS37D (11726825_at) / RFU C10orf10 (11716522_x_at) / Fold change /veh C10orf10 (11716522_x_at) / RFU KIR2DL2 /// KIR2DL4 /// KIR2DL5A /// KIR2DL5B /// KIR2DS1 /// KIR2DS2 /// KIR2DS3 /// KIR2DS4 /// KIR3DL3 /// KIR3DL3 /// KIR3DS1 (11738374_at) / Fold change /veh KIR2DL2 /// KIR2DL4 /// KIR2DL5A /// KIR2DL5B /// KIR2DS1 /// KIR2DS2 /// KIR2DS3 /// KIR2DS4 /// KIR3DL3 /// KIR3DL3 /// KIR3DS1 (11738374_at) / RFU C1QL1 (11718748_at) / Fold change /veh C1QL1 (11718748_at) / RFU TMPRSS4 (11747572_a_at) / Fold change /veh TMPRSS4 (11747572_a_at) / RFU HAMP (11756126_x_at) / Fold change /veh HAMP (11756126_x_at) / RFU RNFT2 (11725882_a_at) / Fold change /veh RNFT2 (11725882_a_at) / RFU NR4A2 (11747474_a_at) / Fold change /veh NR4A2 (11747474_a_at) / RFU ABCC12 (11746883_a_at) / Fold change /veh ABCC12 (11746883_a_at) / RFU TMEM136 (11760407_x_at) / Fold change /veh TMEM136 (11760407_x_at) / RFU CLDN22 /// WWC2 (11732394_at) / Fold change /veh CLDN22 /// WWC2 (11732394_at) / RFU HLA-DPB1 (11760878_x_at) / Fold change /veh HLA-DPB1 (11760878_x_at) / RFU SPINT1 (11716480_a_at) / Fold change /veh SPINT1 (11716480_a_at) / RFU GAP43 (11754022_s_at) / Fold change /veh GAP43 (11754022_s_at) / RFU A4GNT (11735810_at) / Fold change /veh A4GNT (11735810_at) / RFU PRB3 (11715151_x_at) / Fold change /veh PRB3 (11715151_x_at) / RFU TUBB4B (11761932_at) / Fold change /veh TUBB4B (11761932_at) / RFU CAPN14 (11732068_a_at) / Fold change /veh CAPN14 (11732068_a_at) / RFU TMCC2 (11721928_a_at) / Fold change /veh TMCC2 (11721928_a_at) / RFU IRGQ (11745062_a_at) / Fold change /veh IRGQ (11745062_a_at) / RFU FAM174B (11720279_a_at) / Fold change /veh FAM174B (11720279_a_at) / RFU TMPRSS4 (11748680_a_at) / Fold change /veh TMPRSS4 (11748680_a_at) / RFU FAM212B (11763350_a_at) / Fold change /veh FAM212B (11763350_a_at) / RFU PLEKHG5 (11743358_a_at) / Fold change /veh PLEKHG5 (11743358_a_at) / RFU ZSCAN30 (11745921_a_at) / Fold change /veh ZSCAN30 (11745921_a_at) / RFU CMKLR1 (11741424_a_at) / Fold change /veh CMKLR1 (11741424_a_at) / RFU LOC101060620 /// MAPK8IP1 (11723275_at) / Fold change /veh LOC101060620 /// MAPK8IP1 (11723275_at) / RFU SPTSSB (11747773_x_at) / Fold change /veh SPTSSB (11747773_x_at) / RFU PRSS12 (11739890_at) / Fold change /veh PRSS12 (11739890_at) / RFU BIN1 (11741810_x_at) / Fold change /veh BIN1 (11741810_x_at) / RFU WNT11 (11732464_a_at) / Fold change /veh WNT11 (11732464_a_at) / RFU C10orf10 (11716521_a_at) / Fold change /veh C10orf10 (11716521_a_at) / RFU C5orf56 (11738089_at) / Fold change /veh C5orf56 (11738089_at) / RFU CYB561 (11721691_x_at) / Fold change /veh CYB561 (11721691_x_at) / RFU ANKRD19P (11752326_a_at) / Fold change /veh ANKRD19P (11752326_a_at) / RFU OR2T12 /// OR2T33 /// OR2T8 (11738714_s_at) / Fold change /veh OR2T12 /// OR2T33 /// OR2T8 (11738714_s_at) / RFU VCAN (11748164_a_at) / Fold change /veh VCAN (11748164_a_at) / RFU JSRP1 (11732532_at) / Fold change /veh JSRP1 (11732532_at) / RFU KRTAP10-11 (11738290_x_at) / Fold change /veh KRTAP10-11 (11738290_x_at) / RFU MYO3A (11730013_a_at) / Fold change /veh MYO3A (11730013_a_at) / RFU EBF3 (11725865_a_at) / Fold change /veh EBF3 (11725865_a_at) / RFU CAMK2N1 (11719241_x_at) / Fold change /veh CAMK2N1 (11719241_x_at) / RFU C5orf56 (11738088_a_at) / Fold change /veh C5orf56 (11738088_a_at) / RFU OLFML3 (11715873_a_at) / Fold change /veh OLFML3 (11715873_a_at) / RFU LOC100653217 /// NTM (11731650_a_at) / Fold change /veh LOC100653217 /// NTM (11731650_a_at) / RFU MAPK11 (11762145_a_at) / Fold change /veh MAPK11 (11762145_a_at) / RFU FIZ1 (11724087_x_at) / Fold change /veh FIZ1 (11724087_x_at) / RFU OASL (11726364_x_at) / Fold change /veh OASL (11726364_x_at) / RFU SOX15 (11748057_x_at) / Fold change /veh SOX15 (11748057_x_at) / RFU CD79A (11719716_a_at) / Fold change /veh CD79A (11719716_a_at) / RFU HIST1H1D (11736915_at) / Fold change /veh HIST1H1D (11736915_at) / RFU CASKIN2 (11723855_a_at) / Fold change /veh CASKIN2 (11723855_a_at) / RFU LOC730098 (11760151_x_at) / Fold change /veh LOC730098 (11760151_x_at) / RFU OR4N2 (11742367_at) / Fold change /veh OR4N2 (11742367_at) / RFU PRRT2 (11749266_a_at) / Fold change /veh PRRT2 (11749266_a_at) / RFU SNX32 (11753110_a_at) / Fold change /veh SNX32 (11753110_a_at) / RFU CDHR5 (11726645_a_at) / Fold change /veh CDHR5 (11726645_a_at) / RFU RCAN1 (11760418_a_at) / Fold change /veh RCAN1 (11760418_a_at) / RFU FAM167A (11723789_a_at) / Fold change /veh FAM167A (11723789_a_at) / RFU FAM26E (11764081_at) / Fold change /veh FAM26E (11764081_at) / RFU ISYNA1 (11749810_s_at) / Fold change /veh ISYNA1 (11749810_s_at) / RFU ACY1 (11761880_at) / Fold change /veh ACY1 (11761880_at) / RFU 11764098_at / Fold change /veh 11764098_at / RFU SAMD14 (11745864_x_at) / Fold change /veh SAMD14 (11745864_x_at) / RFU NPB (11741838_a_at) / Fold change /veh NPB (11741838_a_at) / RFU TMPRSS6 (11731388_a_at) / Fold change /veh TMPRSS6 (11731388_a_at) / RFU KRTAP10-2 (11738614_at) / Fold change /veh KRTAP10-2 (11738614_at) / RFU ARHGAP8 /// PRR5-ARHGAP8 (11727945_x_at) / Fold change /veh ARHGAP8 /// PRR5-ARHGAP8 (11727945_x_at) / RFU KRTAP5-7 /// NADSYN1 (11734609_at) / Fold change /veh KRTAP5-7 /// NADSYN1 (11734609_at) / RFU RASL12 (11751679_a_at) / Fold change /veh RASL12 (11751679_a_at) / RFU CDKN2B (11736163_a_at) / Fold change /veh CDKN2B (11736163_a_at) / RFU PRF1 (11729649_at) / Fold change /veh PRF1 (11729649_at) / RFU, ZNF638 /// ZNF638-IT1 / Fold change vs veh, ZNF638 /// ZNF638-IT1 / RFU, PANK3 / Fold change vs veh, PANK3 / RFU, SH3YL1 / Fold change vs veh, SH3YL1 / RFU, ZEB2 / Fold change vs veh, ZEB2 / RFU, NRIP1 / Fold change vs veh, NRIP1 / RFU, PTTG1IP / Fold change vs veh, PTTG1IP / RFU, CAPN2 / Fold change vs veh, CAPN2 / RFU, MED14 / Fold change vs veh, MED14 / RFU, SNORA58 / Fold change vs veh, SNORA58 / RFU, C1orf63 / Fold change vs veh, C1orf63 / RFU, LRRFIP1 / Fold change vs veh, LRRFIP1 / RFU, NDUFAF7 / Fold change vs veh, NDUFAF7 / RFU, SLC12A2 / Fold change vs veh, SLC12A2 / RFU, IBTK / Fold change vs veh, IBTK / RFU, ESF1 / Fold change vs veh, ESF1 / Fold change vs veh, TMEM50B / RFU, TAOK1 / Fold change vs veh, TAOK1 / RFU, ACBD3 / Fold change vs veh, ACBD3 / RFU, TMA16 / Fold change vs veh, TMA16 / RFU, RWDD3 / Fold change vs veh, RWDD3 / RFU, BCAT1 / Fold change vs veh, BCAT1 / RFU, EDEM3 / Fold change vs veh, EDEM3 / RFU, TMEM33 / Fold change vs veh, TMEM33 / RFU, WDR75 / Fold change vs veh, WDR75 / RFU, AHCTF1 / Fold change vs veh, AHCTF1 / RFU, TFRC / Fold change vs veh, TFRC / RFU, ZDHHC17 / Fold change vs veh, ZDHHC17 / RFU, NOM1 / Fold change vs veh, NOM1 / RFU, ARL8B / Fold change vs veh, ARL8B / RFU, ZBTB11 / Fold change vs veh, ZBTB11 / RFU, TAMM41 / Fold change vs veh, TAMM41 / RFU, KIAA1704 /// LOC100996395 / Fold change vs veh, KIAA1704 /// LOC100996395 / RFU, ING1 / Fold change vs veh, ING1 / RFU, TRMT61B / Fold change vs veh, TRMT61B / RFU, FUBP3 / Fold change vs veh, FUBP3 / RFU, TP53 / Fold change vs veh, TP53 / RFU, TNKS2 / Fold change vs veh, TNKS2 / RFU, ZFP14 / Fold change vs veh, ZFP14 / RFU, ACTR2 / Fold change vs veh, ACTR2 / RFU, PPP3R1 / Fold change vs veh, PPP3R1 / RFU, PIK3R1 / Fold change vs veh, PIK3R1 / RFU, HNRNPA1 / Fold change vs veh, HNRNPA1 / RFU, RNF170 / Fold change vs veh, RNF170 / RFU, ZNF28 / Fold change vs veh, ZNF28 / RFU, RNGTT / Fold change vs veh, RNGTT / RFU, OGT / Fold change vs veh, OGT / RFU, BRD1 / Fold change vs veh, BRD1 / RFU, MARS / Fold change vs veh, MARS / RFU, ZNF655 / Fold change vs veh, ZNF655 / RFU, FAHD1 / Fold change vs veh, FAHD1 / RFU, BDP1 / Fold change vs veh, BDP1 / RFU, LRRCC1 / Fold change vs veh, LRRCC1 / RFU, ARID1A / Fold change vs veh, ARID1A / RFU, ZNF146 / Fold change vs veh, ZNF146 / RFU, ZNF330 / Fold change vs veh, ZNF330 / RFU, GPN3 / Fold change vs veh, GPN3 / RFU, C9orf123 / Fold change vs veh, C9orf123 / RFU, N4BP2L2 / Fold change vs veh, N4BP2L2 / RFU, ARFIP1 / Fold change vs veh, ARFIP1 / RFU, FAM179B / Fold change vs veh, FAM179B / RFU, BCL10 / Fold change vs veh, BCL10 / RFU, UHRF1BP1L / Fold change vs veh, UHRF1BP1L / RFU, BET1 / Fold change vs veh, BET1 / RFU, CNOT2 / Fold change vs veh, CNOT2 / RFU, ZNF268 / Fold change vs veh, ZNF268 / Fold change vs veh, ZNF507 / RFU, DGCR2 / Fold change vs veh, DGCR2 / RFU, WDSUB1 / Fold change vs veh, WDSUB1 / Fold change vs veh, HSP90B1 /// MIR3652 / RFU, ADSS / Fold change vs veh, ADSS / RFU, GK / Fold change vs veh, GK / RFU, ZNF148 / Fold change vs veh, ZNF148 / RFU, TAF9 / Fold change vs veh, TAF9 / RFU, SLC1A5 / Fold change vs veh, SLC1A5 / RFU, SLMO2 / Fold change vs veh, SLMO2 / RFU, ABCC4 / Fold change vs veh, ABCC4 / RFU, LOC101060439 /// RAP1B / Fold change vs veh, LOC101060439 /// RAP1B / RFU, RFX7 / Fold change vs veh, RFX7 / RFU, GTPBP10 / Fold change vs veh, GTPBP10 / RFU, CNEP1R1 / Fold change vs veh, CNEP1R1 / RFU, BIVM-ERCC5 /// ERCC5 / Fold change vs veh, BIVM-ERCC5 /// ERCC5 / RFU, ILF3 / Fold change vs veh, ILF3 / RFU 11762660_at / Fold change /veh 11762660_at / RFU VCAN (11757783_s_at) / Fold change /veh VCAN (11757783_s_at) / RFU DDX43 (11728927_at) / Fold change /veh DDX43 (11728927_at) / RFU KRT8 (11758188_x_at) / Fold change /veh KRT8 (11758188_x_at) / RFU NKD1 (11759106_at) / Fold change /veh NKD1 (11759106_at) / RFU SRD5A1 (11742802_a_at) / Fold change /veh SRD5A1 (11742802_a_at) / RFU TPSAB1 /// TPSB2 (11721975_s_at) / Fold change /veh TPSAB1 /// TPSB2 (11721975_s_at) / RFU GSTM3 (11746129_a_at) / Fold change /veh GSTM3 (11746129_a_at) / RFU IL23R (11737362_x_at) / Fold change /veh IL23R (11737362_x_at) / RFU TMEM51 (11727254_a_at) / Fold change /veh TMEM51 (11727254_a_at) / RFU PIWIL2 (11732686_x_at) / Fold change /veh PIWIL2 (11732686_x_at) / RFU ORM1 (11744905_x_at) / Fold change /veh ORM1 (11744905_x_at) / RFU CCDC152 (11743942_at) / Fold change /veh CCDC152 (11743942_at) / RFU ECM1 (11717891_a_at) / Fold change /veh ECM1 (11717891_a_at) / RFU IL23R (11748794_a_at) / Fold change /veh IL23R (11748794_a_at) / RFU TNFAIP8L3 (11732012_x_at) / Fold change /veh TNFAIP8L3 (11732012_x_at) / RFU MBOAT4 (11741988_at) / Fold change /veh MBOAT4 (11741988_at) / RFU 11764193_at / Fold change /veh 11764193_at / RFU TMEM53 (11763286_at) / Fold change /veh TMEM53 (11763286_at) / RFU MAGEB2 (11727129_at) / Fold change /veh MAGEB2 (11727129_at) / RFU TMEM200A (11744735_a_at) / Fold change /veh TMEM200A (11744735_a_at) / RFU CCDC152 (11751479_a_at) / Fold change /veh CCDC152 (11751479_a_at) / RFU FAM211A (11726209_a_at) / Fold change /veh FAM211A (11726209_a_at) / RFU RGS16 (11746705_a_at) / Fold change /veh RGS16 (11746705_a_at) / RFU VCAN (11755009_s_at) / Fold change /veh VCAN (11755009_s_at) / RFU RHOB (11743442_s_at) / Fold change /veh RHOB (11743442_s_at) / RFU RGS16 (11720943_a_at) / Fold change /veh RGS16 (11720943_a_at) / RFU RGS16 (11720944_at) / Fold change /veh RGS16 (11720944_at) / RFU, VPS4B / Fold change vs veh, VPS4B / RFU, CREB1 / Fold change vs veh, CREB1 / RFU, DNAJC13 / Fold change vs veh, DNAJC13 / RFU, GNAQ / Fold change vs veh, GNAQ / RFU, CDK5R1 / Fold change vs veh, CDK5R1 / RFU, ZRANB3 / Fold change vs veh, ZRANB3 / RFU, CUL4A / Fold change vs veh, CUL4A / RFU, CCNY / Fold change vs veh, CCNY / RFU, UFL1 / Fold change vs veh, UFL1 / RFU, COG3 / Fold change vs veh, COG3 / RFU, DIAPH2 / Fold change vs veh, DIAPH2 / RFU, SKA2 / Fold change vs veh, SKA2 / RFU, AFF3 / Fold change vs veh, AFF3 / RFU, LMF1 / Fold change vs veh, LMF1 / RFU, IPO11 / Fold change vs veh, IPO11 / RFU, DFFB / Fold change vs veh, DFFB / RFU, FOXP1 / Fold change vs veh, FOXP1 / RFU, CARD8 / Fold change vs veh, CARD8 / RFU, STRN3 / Fold change vs veh, STRN3 / RFU, ADK / Fold change vs veh, ADK / RFU, RASSF2 / Fold change vs veh, RASSF2 / RFU, WIPF1 / Fold change vs veh, WIPF1 / RFU, LARP1B / Fold change vs veh, LARP1B / RFU, RASA1 / Fold change vs veh, RASA1 / RFU, RB1 / Fold change vs veh, RB1 / RFU, PPFIA1 / Fold change vs veh, PPFIA1 / RFU, MAT2A / Fold change vs veh, MAT2A / RFU, CCT5 / Fold change vs veh, CCT5 / RFU, WDR92 / Fold change vs veh, WDR92 / RFU, CUX1 / Fold change vs veh, CUX1 / RFU, TTC7A / Fold change vs veh, TTC7A / RFU, TMEM135 / Fold change vs veh, TMEM135 / RFU, DEPTOR / Fold change vs veh, DEPTOR / RFU, CPM / Fold change vs veh, CPM / RFU, DNAJB6 / Fold change vs veh, DNAJB6 / RFU, CACNA2D3 / Fold change vs veh, CACNA2D3 / RFU, DTX4 / Fold change vs veh, DTX4 / RFU, TFCP2 / Fold change vs veh, TFCP2 / RFU, GMCL1 /// GMCL1P1 / Fold change vs veh, GMCL1 /// GMCL1P1 / RFU, AEBP2 / Fold change vs veh, AEBP2 / RFU, SNHG1 /// SNORD22 /// SNORD25 /// SNORD26 /// SNORD27 /// SNORD28 /// SNORD29 /// SNORD31 / Fold change vs veh, SNHG1 /// SNORD22 /// SNORD25 /// SNORD26 /// SNORD27 /// SNORD28 /// SNORD29 /// SNORD31 / Fold change (Aza/veh), C12orf56 (ProbeSet 11735607_a_at) / Fold change (ACY-1035/veh), C12orf56 (ProbeSet 11735607_a_at) / Fold change (Aza/veh), FGFR1OP (ProbeSet 11751329_s_at) / Fold change (ACY-1035/veh), FGFR1OP (ProbeSet 11751329_s_at) / Fold change (Aza/veh), VPS36 (ProbeSet 11739960_a_at) / Fold change (ACY-1035/veh), VPS36 (ProbeSet 11739960_a_at) / RFU SYPL1 (11715823_x_at) / Fold change /veh SYPL1 (11715823_x_at) / RFU IGFBP7 (11715501_s_at) / Fold change /veh IGFBP7 (11715501_s_at) / RFU REEP3 (11722064_at) / Fold change /veh REEP3 (11722064_at) / RFU IGLL1 (11728026_x_at) / Fold change /veh IGLL1 (11728026_x_at): dose or concentration left out as unconfirmed
Details: MV-4-11 cells, 48 hours

Nc1ccc(-c2cccs2)cc1NC(=O)c1ccc2c(c1)cc(C1CC1)n2CCN1CCOCC1 [ACY-1035]
Fold change /veh HIST1H1D (11736915_at): 0.94
